Experimental data: publication PMC4979471 (Cell Death Discovery, 2015)
Like-named read-outs stand apart in the source and are kept apart here.

Key:
Assay in all cases: Kinase selectivity, P33-radiolabeled assay
Assay type in all cases: biochemical
Details in all cases: 10 μM ATP
[1] = biological target: T1, ALK (Homo sapiens, UniProt Q9UM73)
T1 construct: purchased Reaction Biology Corp
How it was run: (§1)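 Each enzyme was exposed to 10 μM compound, with duplicate measurements, in reactions containing 10 μM ATP. Numbers are remaining activity as a percent of the vehicle (DMSO) signal.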

[2] = biological target: T2, CHK2 (Homo sapiens, UniProt O96017)
T2 construct: purchased Reaction Biology Corp
How it was run: as §1

[3] = biological target: T3, CK1g2 (Homo sapiens, UniProt P78368)
T3 construct: purchased Reaction Biology Corp
How it was run: as §1

[4] = biological target: T4, LATS2 (Homo sapiens, UniProt Q9NRM7)
T4 construct: purchased Reaction Biology Corp
T4 sequence (Q9NRM7 1-1088): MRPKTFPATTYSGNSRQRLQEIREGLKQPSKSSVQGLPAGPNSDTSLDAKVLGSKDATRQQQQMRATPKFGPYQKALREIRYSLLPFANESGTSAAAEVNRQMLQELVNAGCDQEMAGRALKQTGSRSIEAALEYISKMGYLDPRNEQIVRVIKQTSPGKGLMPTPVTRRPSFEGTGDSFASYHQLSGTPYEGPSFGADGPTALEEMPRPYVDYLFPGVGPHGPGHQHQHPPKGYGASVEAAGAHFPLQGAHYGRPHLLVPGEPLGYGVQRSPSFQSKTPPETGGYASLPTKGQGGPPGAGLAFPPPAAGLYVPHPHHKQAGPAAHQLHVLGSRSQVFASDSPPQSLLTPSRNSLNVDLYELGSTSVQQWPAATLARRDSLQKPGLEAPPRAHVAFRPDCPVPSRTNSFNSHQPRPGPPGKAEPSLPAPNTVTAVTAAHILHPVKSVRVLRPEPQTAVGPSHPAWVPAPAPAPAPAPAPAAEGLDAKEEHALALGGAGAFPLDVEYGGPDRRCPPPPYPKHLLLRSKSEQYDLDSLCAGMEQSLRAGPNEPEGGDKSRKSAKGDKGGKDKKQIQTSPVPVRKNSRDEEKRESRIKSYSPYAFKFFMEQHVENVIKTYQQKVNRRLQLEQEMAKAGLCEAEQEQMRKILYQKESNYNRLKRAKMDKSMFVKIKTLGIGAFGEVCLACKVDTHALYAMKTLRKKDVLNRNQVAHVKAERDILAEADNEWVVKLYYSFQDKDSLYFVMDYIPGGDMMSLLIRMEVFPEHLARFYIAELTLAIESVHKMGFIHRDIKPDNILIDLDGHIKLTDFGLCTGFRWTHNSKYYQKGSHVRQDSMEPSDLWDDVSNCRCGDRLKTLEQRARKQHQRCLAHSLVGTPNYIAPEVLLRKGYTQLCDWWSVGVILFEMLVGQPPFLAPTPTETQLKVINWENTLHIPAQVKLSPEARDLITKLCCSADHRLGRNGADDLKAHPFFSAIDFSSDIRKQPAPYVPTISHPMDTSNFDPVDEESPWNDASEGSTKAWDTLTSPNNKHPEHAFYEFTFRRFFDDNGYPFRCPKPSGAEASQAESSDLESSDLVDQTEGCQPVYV
How it was run: as §1

[5] = biological target: T5, MELK (Homo sapiens, UniProt Q14680)
T5 construct: purchased Reaction Biology Corp
How it was run: as §1

[6] = biological target: T6, PAK6 (Homo sapiens, UniProt Q9NQU5)
T6 construct: purchased Reaction Biology Corp
How it was run: as §1

[7] = biological target: T7, VRK1 (Homo sapiens, UniProt Q99986)
T7 construct: purchased Reaction Biology Corp
T7 sequence (Q99986 1-396): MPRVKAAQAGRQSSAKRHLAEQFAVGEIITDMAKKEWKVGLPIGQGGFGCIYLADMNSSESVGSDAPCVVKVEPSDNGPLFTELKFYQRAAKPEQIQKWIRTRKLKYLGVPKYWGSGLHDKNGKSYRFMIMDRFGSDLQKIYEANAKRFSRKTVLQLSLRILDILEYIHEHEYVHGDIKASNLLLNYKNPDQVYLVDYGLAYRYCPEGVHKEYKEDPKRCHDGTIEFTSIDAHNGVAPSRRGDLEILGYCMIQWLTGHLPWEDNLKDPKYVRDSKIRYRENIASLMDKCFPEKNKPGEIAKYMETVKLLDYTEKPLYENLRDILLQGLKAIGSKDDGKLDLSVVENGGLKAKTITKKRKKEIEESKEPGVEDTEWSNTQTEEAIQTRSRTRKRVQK
How it was run: as §1

[8] = read-out: % Enzyme Activity (relative to DMSO controls) AVG
[9] = read-out: % Enzyme Activity (relative to DMSO controls) Data 1
[10] = read-out: % Enzyme Activity (relative to DMSO controls) Data 2

T3 sequence (P78368 whole entry): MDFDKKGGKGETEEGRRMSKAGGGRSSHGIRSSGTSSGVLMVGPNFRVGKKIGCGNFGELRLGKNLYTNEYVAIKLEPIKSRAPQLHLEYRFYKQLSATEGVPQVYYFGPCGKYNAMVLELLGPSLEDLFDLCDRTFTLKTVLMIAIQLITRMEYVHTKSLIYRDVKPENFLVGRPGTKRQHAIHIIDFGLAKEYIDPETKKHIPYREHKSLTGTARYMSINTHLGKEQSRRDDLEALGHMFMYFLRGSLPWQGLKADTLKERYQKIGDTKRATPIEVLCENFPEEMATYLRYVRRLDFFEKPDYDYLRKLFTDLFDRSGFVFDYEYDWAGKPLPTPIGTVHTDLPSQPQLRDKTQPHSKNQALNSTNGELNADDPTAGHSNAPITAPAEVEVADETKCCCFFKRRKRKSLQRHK
T2 sequence (O96017 whole entry): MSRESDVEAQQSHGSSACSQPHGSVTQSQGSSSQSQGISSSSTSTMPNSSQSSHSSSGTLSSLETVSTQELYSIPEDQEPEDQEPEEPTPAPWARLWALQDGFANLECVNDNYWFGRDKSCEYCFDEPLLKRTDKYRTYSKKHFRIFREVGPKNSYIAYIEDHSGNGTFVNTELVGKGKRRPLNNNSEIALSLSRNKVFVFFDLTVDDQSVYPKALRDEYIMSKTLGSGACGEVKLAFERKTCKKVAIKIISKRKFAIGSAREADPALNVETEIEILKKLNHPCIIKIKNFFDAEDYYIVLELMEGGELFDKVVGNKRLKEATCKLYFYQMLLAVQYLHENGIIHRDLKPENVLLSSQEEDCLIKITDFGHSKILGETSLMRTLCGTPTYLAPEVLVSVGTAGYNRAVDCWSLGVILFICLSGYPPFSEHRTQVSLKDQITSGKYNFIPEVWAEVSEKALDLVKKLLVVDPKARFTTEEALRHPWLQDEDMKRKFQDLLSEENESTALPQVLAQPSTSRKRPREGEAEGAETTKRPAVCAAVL
T1 sequence (Q9UM73 19-1620): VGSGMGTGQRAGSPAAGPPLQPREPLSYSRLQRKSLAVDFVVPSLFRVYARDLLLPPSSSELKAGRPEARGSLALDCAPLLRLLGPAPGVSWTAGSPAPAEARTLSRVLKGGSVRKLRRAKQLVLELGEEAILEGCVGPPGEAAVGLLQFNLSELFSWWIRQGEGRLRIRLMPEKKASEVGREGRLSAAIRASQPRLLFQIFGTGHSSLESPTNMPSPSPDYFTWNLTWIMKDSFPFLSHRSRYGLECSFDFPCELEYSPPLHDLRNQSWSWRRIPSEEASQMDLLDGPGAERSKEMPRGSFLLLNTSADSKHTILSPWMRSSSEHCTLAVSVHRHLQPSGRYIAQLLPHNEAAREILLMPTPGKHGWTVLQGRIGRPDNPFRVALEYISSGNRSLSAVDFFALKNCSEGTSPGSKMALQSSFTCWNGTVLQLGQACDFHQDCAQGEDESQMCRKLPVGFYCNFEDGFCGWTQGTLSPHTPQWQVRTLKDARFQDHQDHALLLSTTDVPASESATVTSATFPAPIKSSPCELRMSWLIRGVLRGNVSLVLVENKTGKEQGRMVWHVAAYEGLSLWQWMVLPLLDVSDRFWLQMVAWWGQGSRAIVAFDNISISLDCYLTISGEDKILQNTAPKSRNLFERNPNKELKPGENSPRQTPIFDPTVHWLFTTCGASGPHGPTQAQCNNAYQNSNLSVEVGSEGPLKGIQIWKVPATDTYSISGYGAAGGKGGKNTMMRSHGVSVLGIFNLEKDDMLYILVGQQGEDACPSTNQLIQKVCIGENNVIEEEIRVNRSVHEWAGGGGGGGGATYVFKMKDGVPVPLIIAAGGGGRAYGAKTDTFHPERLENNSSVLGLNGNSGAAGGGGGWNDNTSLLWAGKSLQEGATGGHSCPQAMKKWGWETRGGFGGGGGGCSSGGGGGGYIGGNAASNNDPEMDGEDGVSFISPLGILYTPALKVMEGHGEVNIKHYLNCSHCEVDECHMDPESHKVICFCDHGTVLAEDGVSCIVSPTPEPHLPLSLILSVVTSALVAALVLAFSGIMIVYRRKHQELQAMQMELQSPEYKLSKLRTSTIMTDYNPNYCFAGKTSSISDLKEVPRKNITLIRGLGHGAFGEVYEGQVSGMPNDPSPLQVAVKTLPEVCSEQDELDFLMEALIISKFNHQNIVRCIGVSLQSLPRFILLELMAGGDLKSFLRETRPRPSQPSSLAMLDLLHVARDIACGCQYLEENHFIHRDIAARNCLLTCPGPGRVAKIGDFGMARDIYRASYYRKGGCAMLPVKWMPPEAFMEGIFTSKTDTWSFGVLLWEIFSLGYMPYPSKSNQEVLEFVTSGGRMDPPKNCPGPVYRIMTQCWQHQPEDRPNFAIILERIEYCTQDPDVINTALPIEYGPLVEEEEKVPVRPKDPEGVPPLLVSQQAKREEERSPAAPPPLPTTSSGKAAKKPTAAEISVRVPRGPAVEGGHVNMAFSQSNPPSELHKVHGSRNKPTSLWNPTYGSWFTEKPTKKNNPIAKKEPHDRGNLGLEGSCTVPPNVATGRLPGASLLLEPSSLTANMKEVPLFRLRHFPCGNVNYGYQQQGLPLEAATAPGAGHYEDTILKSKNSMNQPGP
T6 sequence (Q9NQU5 whole entry): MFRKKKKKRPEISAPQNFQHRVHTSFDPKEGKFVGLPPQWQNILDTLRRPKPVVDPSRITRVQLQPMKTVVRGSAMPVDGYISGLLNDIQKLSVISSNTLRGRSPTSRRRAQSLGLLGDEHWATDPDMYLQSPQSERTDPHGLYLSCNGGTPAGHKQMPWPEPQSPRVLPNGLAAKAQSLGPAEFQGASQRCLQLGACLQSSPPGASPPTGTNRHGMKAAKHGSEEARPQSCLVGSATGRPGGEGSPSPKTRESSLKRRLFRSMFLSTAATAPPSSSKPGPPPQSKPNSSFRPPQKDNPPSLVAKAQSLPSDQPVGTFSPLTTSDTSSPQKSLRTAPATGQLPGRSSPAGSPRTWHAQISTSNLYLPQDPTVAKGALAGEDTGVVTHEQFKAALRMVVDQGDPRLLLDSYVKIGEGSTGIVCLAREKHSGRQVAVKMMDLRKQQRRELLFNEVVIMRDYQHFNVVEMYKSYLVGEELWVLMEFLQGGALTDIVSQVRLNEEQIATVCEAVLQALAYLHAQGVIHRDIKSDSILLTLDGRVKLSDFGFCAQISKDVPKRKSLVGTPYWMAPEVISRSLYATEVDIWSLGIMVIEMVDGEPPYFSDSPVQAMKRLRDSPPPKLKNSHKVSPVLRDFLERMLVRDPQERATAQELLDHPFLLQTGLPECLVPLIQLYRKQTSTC
T5 sequence (Q14680 whole entry): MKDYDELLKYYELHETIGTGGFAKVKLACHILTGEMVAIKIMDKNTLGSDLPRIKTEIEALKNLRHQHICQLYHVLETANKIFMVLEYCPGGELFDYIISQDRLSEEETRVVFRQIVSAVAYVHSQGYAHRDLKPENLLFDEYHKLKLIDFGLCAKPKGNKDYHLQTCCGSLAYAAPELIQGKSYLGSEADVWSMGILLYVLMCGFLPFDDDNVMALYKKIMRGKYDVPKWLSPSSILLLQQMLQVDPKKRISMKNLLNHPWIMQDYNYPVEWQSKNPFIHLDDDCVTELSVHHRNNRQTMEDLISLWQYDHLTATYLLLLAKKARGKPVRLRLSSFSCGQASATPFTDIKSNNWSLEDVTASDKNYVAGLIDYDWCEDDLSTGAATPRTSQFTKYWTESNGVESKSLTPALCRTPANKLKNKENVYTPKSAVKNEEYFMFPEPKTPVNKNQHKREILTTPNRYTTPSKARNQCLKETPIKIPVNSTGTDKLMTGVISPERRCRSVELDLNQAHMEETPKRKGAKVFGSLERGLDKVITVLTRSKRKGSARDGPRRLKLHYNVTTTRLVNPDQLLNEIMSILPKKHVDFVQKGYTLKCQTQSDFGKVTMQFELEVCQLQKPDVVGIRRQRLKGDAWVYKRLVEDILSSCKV

**Q.** Which remaining activity at 10 µM [1, 8] does the source give for `CC(C)(C)C(=O)N1N=CC[C@H]1c1ccccc1` [GSK′963] here?
**A.** 101%

**Q.** What about the remaining activity at 10 µM [1, 9] of the same molecule?
**A.** 97.3%

**Q.** What about the remaining activity at 10 µM [1, 10] of the same molecule?
**A.** 105%

**Q.** And the remaining activity at 10 µM [2, 8]?
**A.** 105%

**Q.** What about the remaining activity at 10 µM [2, 9] of the same molecule?
**A.** 106%

**Q.** What about the remaining activity at 10 µM [2, 10] of the same molecule?
**A.** 104%

**Q.** What about the remaining activity at 10 µM [3, 8] of the same molecule?
**A.** 112%

**Q.** What about the remaining activity at 10 µM [3, 9] of the same molecule?
**A.** 112%

**Q.** What about the remaining activity at 10 µM [3, 10] of the same molecule?
**A.** 111%

**Q.** And the remaining activity at 10 µM [4, 8]?
**A.** 117%

**Q.** And the remaining activity at 10 µM [4, 9]?
**A.** 112%

**Q.** What about the remaining activity at 10 µM [4, 10] of the same molecule?
**A.** 121%

**Q.** And the remaining activity at 10 µM [5, 8]?
**A.** 104%

**Q.** And the remaining activity at 10 µM [5, 9]?
**A.** 105%

**Q.** What about the remaining activity at 10 µM [5, 10] of the same molecule?
**A.** 103%

**Q.** And the remaining activity at 10 µM [6, 8]?
**A.** 97.1%

**Q.** What about the remaining activity at 10 µM [6, 9] of the same molecule?
**A.** 99.6%

**Q.** What about the remaining activity at 10 µM [6, 10] of the same molecule?
**A.** 94.7%

**Q.** And the remaining activity at 10 µM [7, 8]?
**A.** 78.2%

**Q.** And the remaining activity at 10 µM [7, 9]?
**A.** 80.9%

**Q.** And the remaining activity at 10 µM [7, 10]?
**A.** 75.4%
